Measurements published in article PMC10820135, “Pharmacokinetic, Tissue Distribution, Metabolite, and Toxicity Evaluation of the Matrine Derivative, (6aS, 10S, 11aR, 11bR, 11cS)-10-Methylaminododecahydro-3a, 7a-Diaza-benzo (de) Anthracene-8-thione” (Molecules, 2024).
Entries after “also recorded” stand apart in the source; their conditions may differ. Read-outs that look alike come from different tables or passages of the source.

Experiments:
[1] = Plasma pharmacokinetics of MASM in rats, non-compartmental analysis; assay type: in vivo, Sprague-Dawley rats; conditions: rat
Procedure: UHPLC analysis was performed using a Thermo Accela AS system, employing an ACQUITY UPLC®BEH C18 (Waters Corporation, Wexfords, Ireland) (1.7 µm, 2.1 × 100 mm) column and a binary solvent system consisting of water containing 0.1% formic acid as mobile phase A and acetonitrile as mobile phase B. For pharmacokinetic evaluation, the gradient elution was set as follows: 97% A from 0 to 2 min, 97–70% A from 2 to 3 min, 70–20% A from 3 to 3.5 min, 20% A from 3.5 to 3.6 min, 20–97% A from 3.6 to 3.7 min, and 97% A from 3.7 to 5 min. For the metabolic test, the gradient elution in full scan mode was set as follows: 97% A from 0 to 2 min, 97–70% A from 2 to 4 min, 70–20% A from 4 to 6 min, 20% A from 6 to 7 min, 20–97% A from 7 to 8 min, and 97% A from 8 to 10 min. The flow rate was 0.2 mL/min, with a temperature of 40 °C maintained and an injection volume of 5 μL. The QQQ-MS/MS analysis was conducted using a Thermo TSQ QUANTUM ACCESS MAX system equipped with an electrospray ionization (ESI) source. The spray voltages were set at 4.0 kV and 2.5 kV for positive and negative ion modes, respectively; capillary and vaporizer temperatures were 320 °C and 350 °C, respectively; sheath and aux gas pressures were 35 and 10 psi, respectively.
A precisely measured MASM sample weighing 400 mg was dissolved in normal saline to create aqueous solutions with concentrations of 8.0, 6.0, and 1.5 mg/mL for intraperitoneal, oral, and intravenous administrations at doses of 80 mg/kg, 60 mg/kg, and 15 mg/kg, respectively.
Seventy Sprague-Dawley rats were fasted overnight before dosing, with free access to water. Subsequently, the rats were randomly and equally divided into 7 groups: the control groups received 3 different routes of administration: intravenous, intraperitoneal, and intragastric (NS, saline 1 mL/100 g); MASM intraperitoneal group (A, i.p. 80 mg/kg), MASM intragastrical group (B, i.g. 60 mg/kg), MASM intravenous group (C, i.v. 15 mg/kg), and DMASM intragastrical group (D, i.g. 60 mg/kg). It is important to note that the recommended clinical dose of matrine injection is 0.15 g, which is equivalent to a dosage of 15 mg/kg in rats. MASM was administered via tail vein injection at a dosage of 1 mL/100 g for intravenous dosing, while for intraperitoneal dosing, MASM was injected at the lower-right side of the abdomen of rats. Blood samples (approximately 0.3 mL) were collected from the eye socket at specific time intervals (0.083, 0.167, 0.25, 0.5, 1, 1.5, 2, 4, 6, 9, 12, and 24 h) after administration for each group. These samples were then placed in centrifuge tubes containing heparin sodium, subjected to centrifugation at 4000 rpm for 15 min, and the resulting supernatant was collected and stored at −80 °C until further analysis. During the analysis of the plasma sample, protein precipitation was carried out using a plasma-to-acetonitrile ratio of 1:3, and 5μL of the resulting supernatant was injected. The developed UHPLC-QQQ-MS/MS analysis method underwent a series of validations, and the peak area of the plasma sample was obtained employing the Xcalibur 2.2 data-processing system. The concentrations of MASM in plasma were then determined using linear regression equations. Subsequently, the in vivo pharmacokinetic parameters were calculated using the non-compartment model in DAS 3.0 software. Blood concentration–time curves were generated using Prism 8.0 (GraphPad Software Inc., San Diego, CA, USA).

[2] = Acute toxicity of MASM in mice via intravenous administration; assay type: in vivo; conditions: ICR, mouse, in vivo, iv, mice, intravenous
Procedure: (§1) All mice were administered MASM intravenously. The body weight of each mouse was measured on days 7 and 14. On the 14th day, all mice were euthanized, and the heart, liver, spleen, lung, and kidney were collected and weighed immediately. Serum was collected from the eyeballs for further biochemical analysis, and a small portion of each tissue and organ was fixed in 4% […] solution for histopathological examination. Bar graphs were generated applying Prism 8.0 (GraphPad Software Inc., San Diego, CA, USA), and HE staining samples were captured using the Leica image system.

[3] = test system: ICR mice; assay: as above; assay type: in vivo
Procedure: as §1

[4] = Sprague-Dawley, plasma, iv, i.v. 15 mg/kg, n = 6, mean ± SD
[5] = i.g. 60 mg/kg, n = 6, mean ± SD
[6] = i.p. 80 mg/kg, n = 6, mean ± SD

CNC1CC(=S)N2CC3CCCN4CCCC(C34)C2C1 [MASM, (6aS, 10S, 11aR, 11bR, 11cS)-10-methylaminododecahydro-3a, 7a-diaza-benzo (de) anthracene-8-thione]
bioavailability ([1]; Sprague-Dawley, plasma, intraperitoneal, i.p. 80 mg/kg vs i.v. 15 mg/kg, n = 6, mean ± SD, read-out: F(%) bioavailability): 54 ± 19.4%
Cmax ([1]; Sprague-Dawley, plasma, ip, i.p. 80 mg/kg, n = 6, mean ± SD): 2210 ± 930 ng/mL
half-life ([1]; Sprague-Dawley, plasma, ip, i.p. 80 mg/kg, n = 6, mean ± SD, read-out: t 1/2 (elimination half-life) (converted)): 9.97 ± 3.95 h
Cmax [1, 4]: 780 ± 540 ng/mL
clearance [1, 4]: 71.7 mL/min/kg
Vd ([1]; Sprague-Dawley, plasma, iv, i.v. 15 mg/kg, n = 6, mean ± SD, read-out: V d (apparent volume of distribution)): 36.6 ± 17.8 L/kg
half-life ([1]; Sprague-Dawley, plasma, iv, i.v. 15 mg/kg, n = 6, mean ± SD, read-out: t 1/2 (elimination half-life) (converted)): 10.5 ± 8.84 h
bioavailability ([1]; Sprague-Dawley, plasma, oral, i.g. 60 mg/kg vs i.v. 15 mg/kg, n = 6, mean ± SD, read-out: F(%) absolute intragastrical bioavailability): 44.5 ± 12.3%
half-life ([1]; Sprague-Dawley, plasma, other: intravenous, intravenous, intraperitoneal or intragastric, read-out: t1/2 regardless of the route of administration (converted)): ~10 h
Cmax ([1]; Sprague-Dawley, plasma, po, i.g. 60 mg/kg, n = 6, mean ± SD): 1380 ± 570 ng/mL
half-life ([1]; Sprague-Dawley, plasma, po, i.g. 60 mg/kg, n = 6, mean ± SD, read-out: t 1/2 (elimination half-life) (converted)): 10.2 ± 4.95 h
Tmax ([1]; Sprague-Dawley, plasma, ip, 80 mg/kg, i.p. 80 mg/kg, n = 6, mean ± SD): 0.21 ± 0.04 h
AUC(0-t) ([1]; Sprague-Dawley, plasma, ip, 80 mg/kg, i.p. 80 mg/kg, n = 6, mean ± SD, read-out: AUC(0–24)): 15600 ± 5610 ng·h/mL
AUC(0-t) ([1]; Sprague-Dawley, plasma, ip, 80 mg/kg, i.p. 80 mg/kg, n = 6, mean ± SD, read-out: AUC(0–t)): 12400 ± 5320 ng·h/mL
Tmax ([1]; Sprague-Dawley, plasma, iv, 15 mg/kg, i.v. 15 mg/kg, n = 6, mean ± SD): 0.17 ± 0.17 h
AUC(0-t) ([1]; Sprague-Dawley, plasma, iv, 15 mg/kg, i.v. 15 mg/kg, n = 6, mean ± SD, read-out: AUC(0–24)): 5410 ± 3220 ng·h/mL
AUC(0-t) ([1]; Sprague-Dawley, plasma, iv, 15 mg/kg, i.v. 15 mg/kg, n = 6, mean ± SD, read-out: AUC(0–t)): 4280 ± 2400 ng·h/mL
Tmax ([1]; Sprague-Dawley, plasma, po, 60 mg/kg, i.g. 60 mg/kg, n = 6, mean ± SD): 1.3 h
AUC(0-t) ([1]; Sprague-Dawley, plasma, po, 60 mg/kg, i.g. 60 mg/kg, n = 6, mean ± SD, read-out: AUC(0–24)): 13700 ± 7550 ng·h/mL
AUC(0-t) ([1]; Sprague-Dawley, plasma, po, 60 mg/kg, i.g. 60 mg/kg, n = 6, mean ± SD, read-out: AUC(0–t)): 10900 ± 4780 ng·h/mL
CL [1, 5]: 93.3 ± 49 mL/min/kg
V d (apparent volume of distribution) [1, 5]: 69.43 ± 22.58 L/kg
CL [1, 6]: 95.5 ± 33.8 mL/min/kg
V d (apparent volume of distribution) [1, 6]: 84.74 ± 57.17 L/kg
LD50 at 14 day ([2]; 14-day observation, read-out: LD50): 94.2 mg/kg
LD50 at 14 day ([2]; read-out: LD50, 95% confidence interval): 70.8 to 129 mg/kg
viscera indices (visceral weight to body weight) of heart, liver, spleen, lung, kidney ([3]; day 14, vs control group, all dosages): no significant alterations; also recorded: remained unchanged
heart histopathology (HE staining) ([3]; high (240 mg/kg) and medium-high (144 mg/kg) dose groups): noticeable increase in myocardial fiber density
spleen histopathology (HE staining) ([3]; high and medium-high dose groups vs control): slight increase in the count of splenic sinusoids and lymph nodes
liver histopathology (HE staining) ([3]; high and medium-high dose groups, accompanied by portal area bleeding): noteworthy escalation in the number of hepatocytes
kidney histopathology (HE staining) ([3]; high-dose group (240 mg/kg)): proliferation and dense arrangement, accompanied by evident bleeding
lung histopathology (HE staining), alveolar cavity ([3]; high-dose group (240 mg/kg)): widened, accompanied by hemorrhaging
lung histopathology (HE staining), alveolar wall ([3]; medium-dose to low-dose groups): slight thinning
kidney histopathology, renal interstitial blood vessels ([3]; medium-high and medium-dose groups): proliferation and dilation
ALP activity in plasma vs control ([3]; mice, day 14, p > 0.05): no statistically significant differences
ALT activity in plasma vs control ([3]; mice, day 14, p > 0.05): no statistically significant differences
AST activity in plasma vs control ([3]; mice, day 14, p > 0.05): no statistically significant differences
albumin (ALB) level in plasma vs control ([3]; mice, day 14, p > 0.05): no statistically significant differences
creatinine (CREA) level in plasma vs control ([3]; mice, day 14, p > 0.05): statistically indistinguishable from those of the control group; also recorded: no statistically significant differences
total protein (TP) level in plasma vs control ([3]; mice, day 14, p > 0.05): no statistically significant differences
urea (UREA) level in plasma vs control ([3]; mice, day 14, p > 0.05): statistically indistinguishable from those of the control group; also recorded: no statistically significant differences
symptoms upon death ([3]; mice, intravenous): convulsions, increased salivary secretion, urination, and defecation
overall histopathological changes of primary organs ([3]; particularly low (31.1 mg/kg), medium-low (51.84 mg/kg), medium (86.4 mg/kg) dose groups): no significant alterations; also recorded: no substantial pathological alterations; also recorded: did not reveal any significant pathological changes
